Reference: PubChem BioAssay (NCI)
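Each compound was tested at five concentrations against cells in 96-well plates for 48 hours. Here, GI50 denotes the concentration required for 50% inhibition of growth. The concentration for full growth arrest is given as TGI.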

Legend:
Assay in all cases: growth of human tumour cells (NCI), 48 h
[1] = tested on: SK-MEL-28 melanoma
[2] = tested on: SNB-75 CNS
[3] = tested on: MDA-MB-231 breast
[4] = tested on: UO-31 renal
[5] = tested on: SW-620 colon
[6] = tested on: HS 578T breast
[7] = tested on: SF-268 CNS
[8] = tested on: CCRF-CEM leukemia
[9] = tested on: U251 CNS
[10] = tested on: HCT-116 colon
[11] = tested on: NCI-H522 lung
[12] = tested on: SNB-19 CNS
[13] = tested on: A498 renal
[14] = tested on: UACC-257 melanoma
[15] = tested on: KM12 colon
[16] = tested on: COLO 205 colon
[17] = tested on: HOP-92 NSCLC
[18] = tested on: HCC-2998 colon
[19] = tested on: M14 melanoma
[20] = tested on: T-47D breast
[21] = tested on: SF-539 CNS
[22] = tested on: LOX IMVI melanoma
[23] = tested on: NCI-H226 lung
[24] = tested on: UACC-62 melanoma
[25] = tested on: MOLT-4 leukemia
[26] = tested on: IGROV1 ovarian
[27] = tested on: OVCAR-4 ovarian
[28] = tested on: NCI-H23 lung
[29] = tested on: RPMI-8226 leukemia

COC1=CC(c2ccc[nH]2)=N/C1=C\c1[nH]c(C)c(C(=O)CCCCC(=O)NCc2ccccc2)c1C
GI50 [1]: 2.07 µM | TGI [1]: 4.64 µM | GI50 [2]: 3.72 µM | TGI [2]: 15.1 µM | GI50 [3]: 1.61 µM | TGI [3]: 7.56 µM | GI50 [4]: 2.26 µM | TGI [4]: 8.81 µM | GI50 [5]: 1.06 µM | TGI [5]: 2.58 µM | GI50 [6]: 1.98 µM | TGI [6]: 4.43 µM | GI50 [7]: 1.82 µM | TGI [7]: 6.04 µM | GI50 [8]: 0.673 µM | TGI [8]: 6.98 µM | GI50 [9]: 1.43 µM | TGI [9]: 2.95 µM | GI50 [10]: 1.51 µM | TGI [10]: 2.83 µM | GI50 [11]: 1.95 µM | TGI [11]: 6.09 µM | GI50 [12]: 8.76 µM | TGI [12]: 24 µM | GI50 [13]: 15.5 µM | TGI [13]: 35.3 µM | GI50 [14]: 18.6 µM | TGI [14]: 38.5 µM | GI50 [15]: 1.38 µM | TGI [15]: 3.02 µM | GI50 [16]: 2.37 µM | GI50 [17]: 1.65 µM | TGI [17]: 4.63 µM | GI50 [18]: 3.16 µM | TGI [18]: 12.2 µM | GI50 [19]: 2.68 µM | TGI [19]: 7.36 µM | GI50 [20]: 2.34 µM | TGI [20]: 7.23 µM | GI50 [21]: 4.66 µM | TGI [21]: 15.8 µM | GI50 [22]: 1.43 µM | TGI [22]: 2.77 µM | GI50 [23]: 2.73 µM | TGI [23]: 10.9 µM | GI50 [24]: 8.85 µM | TGI [24]: 22.8 µM | GI50 [25]: 1.09 µM | TGI [25]: 3.09 µM | GI50 [26]: 3.36 µM | TGI [26]: 14.7 µM | GI50 [27]: 6.31 µM | TGI [27]: 23.4 µM | GI50 [28]: 2.47 µM | TGI [28]: 11 µM | GI50 [29]: 2.56 µM
